What all share (experiment): Inhibition halo
Assay type in all cases: cell-based
Common to all, as to settings: positive control antibiotic 0.1 g/L

One experiment deals with Staphylococcus aureus. The method, then: (§1) Routine experiments were performed comparing the inhibition halos, using an antibiotic as a positive control: carbamycin 0.1 g/L for Bacillus sp; chloramphenicol 0.1 g/L for Enterobacter aerogenes; and, ampicillin 0.1 g/L. for Salmonella sp, Staphylococcus aureus and Escherichia coli as shown in Table 7 below.
The test system of the next experiment is Salmonella sp. On the procedure: as §1
The next experiment deals with Escherichia coli. The method, then: FIG. 7. Inhibitory effect of the composition of the invention on Escherichia coli.
as §1

For the next experiment, the system named is Enterobacter aerogenes. The method, then: as §1
A further experiment has as its system Bacillus sp. On the procedure: as §1

Drawing on patent US20230000089A1, “COMPOSITION ENRICHED IN POLYPHENOLS AND FLAVONOIDS FOR USE AS BIOSTIMULANT AND ANTIMICROBIAL FOR AGRICULTURE APPLICATIONS” (BOTANITEC SPA, priority 2019, published 2023), this text covers Inhibition halo for three compounds.

`CC1(C)S[C@@H]2[C@H](NC(=O)[C@H](N)c3ccccc3)C(=O)N2[C@H]1C(=O)O` [ampicillin]: the Inhibition halo in the experiment with Staphylococcus aureus is 25 mm; in the experiment with Salmonella sp, 28 mm; with Escherichia coli it was 52 mm.

In the experiment with Enterobacter aerogenes, `O=C(N[C@H](CO)[C@H](O)c1ccc([N+](=O)[O-])cc1)C(Cl)Cl` [chloramphenicol] showed an Inhibition halo of 50 mm.

As for carbamycin, in the experiment with Bacillus sp, the Inhibition halo is on record as 31 mm.
